Assay results taken from ChEMBL document CHEMBL4261640, “Potent Antiglioblastoma Agents by Hybridizing the Onium-Alkyloxy-Stilbene Based Structures of an α7-nAChR, α9-nAChR Antagonist and of a Pro-Oxidant Mitocan” (J Med Chem, 2018).
pIC50, pKi: −log10 of the molar value. Activity calls are given as the source filed them. The calls are words filed in the database; no cut-off is given here.

Experiments:
[1] = Drug uptake in human HepG2 cells assessed as relative fluorescence unit at 1 uM after 1 hr to 24 hrs by fluorescent plate reader based assay; type: ADME, cell-based; conditions: hepg2, 1 µM
[2] = target: T1, Neuronal acetylcholine receptor subunit alpha-7 (Homo sapiens, UniProt P36544); assay: Displacement of [125I]-alpha-bungarotoxin from human alpha7 nAChR expressed in human SH-SY5Y cell membranes after 30 mins by gamma counting analysis
A549 = assay: cells; conditions: Homo sapiens, A549, 72 h
Description: Antiproliferative activity against human A549 cells after 72 hrs by MTS assay

U-87 MG [3] = assay: cells; conditions: Homo sapiens, 72 h
Description: Antiproliferative activity against human U87MG cells after 72 hrs by MTS assay

U-87 MG [4] = assay: Induction of ROS production in human U87MG cells at 500 nM after 1 hr by MitoSOX Red mitochondrial superoxide indicator based FACS analysis relative to antimycin A; type: functional, U-87MG ATCC
U-87 MG [5] = assay: Induction of ROS production in human U87MG cells after 1 hr by MitoSOX Red mitochondrial superoxide indicator based FACS analysis; type: functional, cell-based; conditions: U-87MG ATCC
SH-SY5Y = assay: Antiproliferative activity against human SH-SY5Y cells after 72 hrs by MTS assay
U-87 MG [6] = assay: Reduction in mitochondrial membrane potential in human U87MG cells after 72 hrs by TMRM-staining based assay; type: functional, cell-based; conditions: U-87MG ATCC
U-87 MG [7] = assay: Reduction in mitochondrial membrane potential in human U87MG cells after 72 hr by TMRM-staining based assay; conditions: U-87MG ATCC
Astrocyte = assay: Cytotoxicity against mouse astrocytes assessed as reduction in cell viability after 72 hrs by MTS assay
U-87 MG [8] = assay: Cytotoxicity against human U87MG cells assessed as decrease in ATP production at 0.1 uM after 72 hrs by luciferin-luciferase-based luminescent assay; type: functional, cell-based; conditions: U-87MG ATCC
U-87 MG [9] = assay: Cytotoxicity against human U87MG cells assessed as decrease in ATP production at 0.1 uM after 1 hr by luciferin-luciferase-based luminescent assay; type: functional, cell-based; conditions: U-87MG ATCC
U-87 MG [10] = assay: Cytotoxicity against human U87MG cells assessed as decrease in ATP production at 2 uM after 72 hrs by luciferin-luciferase-based luminescent assay; type: functional, cell-based; conditions: U-87MG ATCC
U-87 MG [11] = assay: Cytotoxicity against human U87MG cells assessed as decrease in ATP production at 2 uM after 1 hr by luciferin-luciferase-based luminescent assay; type: functional, cell-based; conditions: U-87MG ATCC
[12] = target: T1, Neuronal acetylcholine receptor subunit alpha-7; assay: Antagonist activity at human alpha7 nACHR expressed in xenopous laevis oocyte assessed as inhibition of ACh-induced channel current after 5 mins at -70 mV holding potential by two electrode voltage clamp method
[13] = target: Neuronal acetylcholine receptor; alpha9/alpha10 (Homo sapiens, UniProt Q9GZZ6+Q9UGM1); assay: Antagonist activity at human alpha9alpha10 nACHR expressed in xenopous laevis oocyte assessed as inhibition of ACh-induced channel current after 5 mins at -70 mV holding potential by two electrode voltage clamp method
U-87 MG [14] = assay: Cytotoxicity against human U87MG cells assessed as decrease in ATP production at 1 uM after 1 hr by luciferin-luciferase-based luminescent assay; type: functional, cell-based; conditions: U-87MG ATCC
U-87 MG [15] = assay: Cytotoxicity against human U87MG cells assessed as decrease in ATP production at 1 uM after 72 hrs by luciferin-luciferase-based luminescent assay; type: functional, cell-based; conditions: U-87MG ATCC
[16] = Drug uptake in human HepG2 cells assessed as relative fluorescence unit at 100 uM after 6 hrs by fluorescent plate reader based assay; type: ADME, cell-based; conditions: hepg2, 6 h
[17] = Drug uptake in human HepG2 cells assessed as relative fluorescence unit at 50 uM after 24 hrs by fluorescent plate reader based assay; type: ADME, cell-based; conditions: hepg2, 24 h
U-87 MG [18] = assay: Cytotoxicity against human U87MG cells assessed as decrease in ATP production at 4 uM after 72 hrs by luciferin-luciferase-based luminescent assay; type: functional, cell-based; conditions: U-87MG ATCC
[19] = Drug uptake in human HepG2 cells assessed as relative fluorescence unit at 10 uM after 6 hrs by fluorescent plate reader based assay; type: ADME, cell-based; conditions: hepg2, 6 h
[20] = Drug uptake in human HepG2 cells assessed as relative fluorescence unit at 10 uM after 24 hrs by fluorescent plate reader based assay; type: ADME, cell-based; conditions: hepg2, 24 h
[21] = Drug uptake in human HepG2 cells assessed as relative fluorescence unit at 1 uM after 6 hrs by fluorescent plate reader based assay; type: ADME, cell-based; conditions: hepg2, 6 h
[22] = Drug uptake in human HepG2 cells assessed as relative fluorescence unit at 100 uM after 24 hrs by fluorescent plate reader based assay; type: ADME, cell-based; conditions: hepg2, 24 h
[23] = Drug uptake in human HepG2 cells by fluorescent plate reader based assay; type: ADME, cell-based
[24] = Drug uptake in human HepG2 cells assessed as relative fluorescence unit at 50 uM after 6 hrs by fluorescent plate reader based assay; type: ADME, cell-based; conditions: hepg2, 6 h
[25] = Drug metabolism in human HepG2 cells assessed as loss of styrene moiety at 100 uM incubated for 24 hrs by MS/MS analysis; type: ADME, cell-based; conditions: hepg2, 24 h
[26] = Drug uptake in human HepG2 cells assessed as relative fluorescence unit at 1 uM after 24 hrs by fluorescent plate reader based assay; type: ADME, cell-based; conditions: hepg2, 24 h

T1 sequence (P36544 whole entry): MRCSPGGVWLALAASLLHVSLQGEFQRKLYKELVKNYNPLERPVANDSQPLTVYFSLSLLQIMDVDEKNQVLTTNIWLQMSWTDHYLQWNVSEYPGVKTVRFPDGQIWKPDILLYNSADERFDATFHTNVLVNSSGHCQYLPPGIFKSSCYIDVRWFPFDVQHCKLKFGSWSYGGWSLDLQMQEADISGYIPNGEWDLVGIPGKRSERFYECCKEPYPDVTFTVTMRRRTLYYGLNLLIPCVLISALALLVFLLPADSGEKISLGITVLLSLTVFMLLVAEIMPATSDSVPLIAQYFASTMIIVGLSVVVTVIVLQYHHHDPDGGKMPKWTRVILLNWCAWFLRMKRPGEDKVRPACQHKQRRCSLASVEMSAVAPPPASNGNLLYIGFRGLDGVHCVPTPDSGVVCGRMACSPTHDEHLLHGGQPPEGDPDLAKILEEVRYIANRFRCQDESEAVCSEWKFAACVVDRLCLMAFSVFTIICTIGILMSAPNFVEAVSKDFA
Neuronal acetylcholine receptor; alpha9/alpha10, sequence (Q9UGM1 whole entry): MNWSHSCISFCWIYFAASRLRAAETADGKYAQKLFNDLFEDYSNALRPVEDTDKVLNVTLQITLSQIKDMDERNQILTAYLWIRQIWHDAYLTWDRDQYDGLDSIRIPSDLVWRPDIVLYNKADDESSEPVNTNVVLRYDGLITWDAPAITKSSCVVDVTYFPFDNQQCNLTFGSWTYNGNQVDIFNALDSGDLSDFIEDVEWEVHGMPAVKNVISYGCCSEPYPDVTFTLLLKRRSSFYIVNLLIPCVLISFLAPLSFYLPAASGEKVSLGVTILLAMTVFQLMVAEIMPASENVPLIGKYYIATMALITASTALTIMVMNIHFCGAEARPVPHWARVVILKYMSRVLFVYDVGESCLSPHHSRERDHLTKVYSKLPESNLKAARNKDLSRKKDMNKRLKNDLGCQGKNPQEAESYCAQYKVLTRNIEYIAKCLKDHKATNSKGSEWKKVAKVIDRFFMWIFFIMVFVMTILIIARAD
Neuronal acetylcholine receptor; alpha9/alpha10, sequence (Q9GZZ6 whole entry): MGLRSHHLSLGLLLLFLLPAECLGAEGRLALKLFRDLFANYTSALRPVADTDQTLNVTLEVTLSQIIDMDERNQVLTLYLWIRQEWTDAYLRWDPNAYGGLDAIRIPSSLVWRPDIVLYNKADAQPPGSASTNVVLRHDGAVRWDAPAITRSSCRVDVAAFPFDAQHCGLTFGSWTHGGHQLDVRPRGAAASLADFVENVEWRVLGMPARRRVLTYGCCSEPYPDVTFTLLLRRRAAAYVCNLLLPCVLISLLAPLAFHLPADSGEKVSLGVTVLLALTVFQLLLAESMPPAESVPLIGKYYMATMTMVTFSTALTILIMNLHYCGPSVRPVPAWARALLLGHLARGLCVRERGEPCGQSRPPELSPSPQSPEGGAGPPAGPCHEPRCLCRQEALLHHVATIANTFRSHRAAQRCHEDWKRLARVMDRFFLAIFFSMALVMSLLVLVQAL

| Compound | pKi [2] | pIC50 (A549) | pIC50 (U-87 MG [3]) | Activity (U-87 MG [4]) [%] | Activity (U-87 MG [6]) | Activity (U-87 MG [7]) | pIC50 [12] | further results |
| --- | --- | --- | --- | --- | --- | --- | --- | --- |
| C(=C\c1ccc(OCCCCCCCC[P+](c2ccccc2)(c2ccccc2)c2ccccc2)cc1)/c1ccccc1.[I-] | 6.04 | 6.59 | 7.15 | 46.3 | – | – | – | Drug uptake [1]: Active |
| C(=C\c1ccc(OCCCCCCCCCC[P+](c2ccccc2)(c2ccccc2)c2ccccc2)cc1)/c1ccccc1.[I-] | 5.71 | 7.00 | 7.22 | 58.2 | Active | Active | – | Activity (U-87 MG [5]): Dose-dependent effect; pIC50 (SH-SY5Y): 6.68; pIC50 (Astrocyte): 6.22; Activity (U-87 MG [8]): Active; Activity (U-87 MG [9]): Active |
| C(=C\c1ccc(OCCCCCCCCC[P+](c2ccccc2)(c2ccccc2)c2ccccc2)cc1)/c1ccccc1.[I-] | 5.89 | 6.96 | 7.05 | 56.3 | – | – | – | – |
| C(=C\c1ccc(OCCC[P+](c2ccccc2)(c2ccccc2)c2ccccc2)cc1)/c1ccccc1.[I-] | 6.01 | 5.74 | 5.85 | 21 | – | – | – | – |
| C(=C\c1ccc(OCCCC[P+](c2ccccc2)(c2ccccc2)c2ccccc2)cc1)/c1ccccc1.[I-] | 5.79 | 6.38 | 6.19 | 1.5 | Active | Active | – | Activity (U-87 MG [5]): Dose-dependent effect; pIC50 (SH-SY5Y): 5.52; Activity (U-87 MG [10]): Active; pIC50 (Astrocyte): 6.40; Activity (U-87 MG [11]): Active |
| CC[N+](CC)(CC)CCCCCCOc1ccc(/C=C/c2ccccc2)cc1 | 6.33 | – | – | – | – | – | 7.91 | – |
| CC[N+](CC)(CC)CCCCOc1ccc(/C=C/c2cc(OC)cc(OC)c2)cc1 | 6.52 | – | – | – | – | – | 7.61 | – |
| COc1cc(/C=C/c2ccc(OCCCC[P+](c3ccccc3)(c3ccccc3)c3ccccc3)cc2)cc(OC)c1.[I-] | 5.74 | 6.59 | 6.07 | 16.3 | Active | Active | < 5.00 | Activity (U-87 MG [5]): Dose-dependent effect; pIC50 (SH-SY5Y): 6.26; pIC50 [13]: < 5.00; Activity (U-87 MG [14]): Active; pIC50 (Astrocyte): 6.00; Activity (U-87 MG [15]): Active |
| C(=C\c1ccc(OCCCCCCC[P+](c2ccccc2)(c2ccccc2)c2ccccc2)cc1)/c1ccccc1.[I-] | 6.21 | 6.92 | 6.44 | 39.5 | – | – | – | – |
| CC[N+](CC)(CC)CCCCCCCCOc1ccc(/C=C/c2ccccc2)cc1.[I-] | 6.79 | – | – | – | – | – | 7.04 | Drug uptake [1]: Active |
| C(=C\c1ccc(OCCCCC[P+](c2ccccc2)(c2ccccc2)c2ccccc2)cc1)/c1ccccc1.[I-] | 5.55 | 6.49 | 6.17 | 20 | – | – | – | – |
| CC[N+](CC)(CC)CCOc1ccc(/C=C/c2ccccc2)cc1.[I-] [STILONIUM IODIDE] | – | – | – | – | Active | Active | – | Drug uptake [16]: 9.43 RFU; Drug uptake [17]: 9.13 RFU; Activity (U-87 MG [18]): Active; Drug uptake [19]: 6.82 RFU; Drug uptake [20]: 7.18 RFU; Drug uptake [21]: 4.75 RFU; Drug uptake [22]: 14.35 RFU; Drug uptake [23]: Dose-dependent effect and Tde; Drug uptake [24]: 7.67 RFU; Drug metabolism [25]: Metabolite_Detected; Drug uptake [26]: 5.42 RFU |
| C(=C\c1ccc(OCCCCCC[P+](c2ccccc2)(c2ccccc2)c2ccccc2)cc1)/c1ccccc1.[I-] | 6.25 | 6.82 | 6.42 | 27.3 | – | – | – | – |
| CC[N+](CC)(CC)CCCCOc1ccc(/C=C/c2ccccc2)cc1.[I-] | 6.73 | – | – | – | – | – | 8.19 | Drug uptake [1]: Active |
| CC[N+](CC)(CC)CCOc1ccc(/C=C/c2cc(OC)cc(OC)c2)cc1 | – | 4.92 | 5.28 | – | Active | Active | – | Activity (U-87 MG [5]): inactive; Activity (U-87 MG [18]): Active; pIC50 (SH-SY5Y): < 4.00; pIC50 [13]: 7.76; pIC50 (Astrocyte): 4.64 |
